In ChEMBL document CHEMBL3044637, “Microsomal delta 8,14-sterol delta 14-reductase in higher plants. Characterization and inhibition by analogues of a presumptive carbocationic intermediate of the reduction reaction” (Eur J Biochem, 1989):

What was measured:
[1] = biological target: T1, Cycloeucalenol cycloisomerase (Zea mays, UniProt B6TK44); assay: Inhibition of Zea mays (maize) cycloeucalenol-obtusifolial isomerase
T1 sequence (B6TK44 whole entry): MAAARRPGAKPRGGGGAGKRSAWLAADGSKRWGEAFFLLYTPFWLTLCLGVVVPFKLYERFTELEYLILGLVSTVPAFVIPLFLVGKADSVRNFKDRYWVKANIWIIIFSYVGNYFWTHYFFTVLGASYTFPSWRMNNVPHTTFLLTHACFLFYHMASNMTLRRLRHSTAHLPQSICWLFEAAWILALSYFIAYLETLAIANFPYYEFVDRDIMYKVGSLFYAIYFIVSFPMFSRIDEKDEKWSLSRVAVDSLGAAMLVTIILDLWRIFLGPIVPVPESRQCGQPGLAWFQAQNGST

[2] = biological target: T2, Delta(14)-sterol reductase (Zea mays, UniProt B4FS76); assay: Inhibition of Zea mays (maize) microsomal delta 8,14-steroid 14-reductase using delta 8,14-cholestadienol as substrate after 90 min by GC analysis
T2 sequence (B4FS76 whole entry): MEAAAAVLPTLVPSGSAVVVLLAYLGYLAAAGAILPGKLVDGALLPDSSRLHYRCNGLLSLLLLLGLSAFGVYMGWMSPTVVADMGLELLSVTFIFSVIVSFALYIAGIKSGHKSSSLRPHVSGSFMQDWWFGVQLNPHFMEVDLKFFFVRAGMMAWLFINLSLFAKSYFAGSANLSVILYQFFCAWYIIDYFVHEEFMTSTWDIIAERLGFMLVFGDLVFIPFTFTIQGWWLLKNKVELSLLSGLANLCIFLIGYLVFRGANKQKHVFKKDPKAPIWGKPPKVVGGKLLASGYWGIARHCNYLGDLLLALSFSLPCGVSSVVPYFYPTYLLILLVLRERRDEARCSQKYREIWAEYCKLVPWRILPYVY

[3] = biological target: T3, Delta(14)-sterol reductase (Zea mays) (UniProt B4FS76); assay: Ratio of compound I50 to delta8,14-cholestadien-3beta-ol Km for Zea mays (maize) delta 8,14-steroid 14-reductase
T3 sequence (whole entry): T2 sequence (B4FS76 whole entry)

Sterol-8,7-isomerase = biological target: T4, Sterol-8,7-isomerase (Zea mays, UniProt Q2TU57); assay: Inhibition of Zea mays (maize) delta8,delta7-sterol isomerase
T4 sequence (Q2TU57 whole entry): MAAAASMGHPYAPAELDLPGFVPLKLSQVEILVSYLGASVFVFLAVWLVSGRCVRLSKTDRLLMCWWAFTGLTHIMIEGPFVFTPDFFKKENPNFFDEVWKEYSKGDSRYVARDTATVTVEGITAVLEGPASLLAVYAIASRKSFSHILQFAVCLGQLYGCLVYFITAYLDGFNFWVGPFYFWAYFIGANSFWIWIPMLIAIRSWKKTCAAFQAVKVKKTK

[4] = biological target: T5, Cycloeucalenol cycloisomerase (Zea mays) (UniProt B6TK44); assay: Inhibition of Zea mays (maize) cycloeucalenol-obtusifolial isomerase at 200 uM
T5 sequence (whole entry): T1 sequence (B6TK44 whole entry)

[5] = biological target: T6, Sterol-8,7-isomerase (Zea mays) (UniProt Q2TU57); assay: Inhibition of Zea mays (maize) delta8,delta7-sterol isomerase at 200 uM
T6 sequence (whole entry): T4 sequence (Q2TU57 whole entry)

[6] = biological target: T3, Delta(14)-sterol reductase (Zea mays); assay: Inhibition of Zea mays (maize) microsomal delta 8,14-steroid 14-reductase using delta 8,14-cholestadienol as substrate at 200 uM after 90 min by GC analysis

inhibition [5] [%]	inhibition [6] [%]	Structure (SMILES)	IC50 [1] [nM]	IC50 [2] [nM]	Ratio [3]	IC50 (Sterol-8,7-isomerase) [nM]	inhibition [4] [%]
		CCCCCCCCCCCCN1CC[C@H]2[C@H](C)[C@@H](O)CC[C@]2(C)C1	100	90			
		CC(Cc1ccc(C(C)(C)C)cc1)CN1CC[C@H]2[C@H](C)[C@@H](O)CC[C@]2(C)C1 (stereo partly drawn)	100	70	6.5e-05		
		CCCCCCCCCCCCCN1CC(C)OC(C)C1 (stereo not drawn) [TRIDEMORPH]	400	25000		400	
		CC(C)CCCC(C)CCCC(C)N1CC[C@H]2[C@H](C)[C@@H](O)CC[C@]2(C)C1 (stereo partly drawn)	25	300		200	
		Clc1ccccc1CNC[C@H]1CC[C@H](CNCc2ccccc2Cl)CC1		40000		500	< 5
		CC(Cc1ccc(C(C)(C)C)cc1)CN1CCCCC1 (stereo not drawn) [FENPROPIDIN]	200	3000		80	
< 5	< 5	C[C@@H]1[C@@H](O)CC[C@]2(C)CCCC[C@@H]12					< 5
		C[C@@H]1[C@@H](O)CC[C@]2(C)CN(Cc3ccccc3)CC[C@@H]12	100	80		130	
		CC(Cc1ccc(C(C)(C)C)cc1)CN1C[C@@H](C)O[C@@H](C)C1 (stereo partly drawn) [FENPROPIMORPH]	400	800		400	
		C=C(CC[C@@H](C)[C@H]1CCN=C2C3=C(CC[C@@]21C)[C@@]1(C)CC[C@H](O)C[C@@H]1CC3)C(C)C		30	0.00015	800	< 5
		C[C@@H]1[C@@H](O)CC[C@]2(C)CNCC[C@@H]12	17500	4500		10000	
